Laboratory results taken from PubChem BioAssay AID1918995 (Molecular Pharmacology Branch, DTP, NCI, 2023).

System: 324938-238-R-J1-PDC complex spheroid growth, % test/control
Test: Anticancer human tumor 324938-238-R-J1-PDC patient-derived bladder carcinoma cell line growth inhibition [AhR]
Details: for IC50: curve of first compound; for viability, T/C: stronger effect = lower value
Outline: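 Complex tumor spheroids co-cultured with HUVEC and human MSC stroma; AhR antagonists tested in combination with standard-of-care and investigational agents. Top concentration at or near clinical Cmax (else 10 microM), half-log dilutions; growth expressed as percent test/control.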

[1] = second compound 0.1 µM, first compound 0.000949 µM
[2] = second compound 0.1 µM, first compound 0.003 µM
[3] = second compound 0.1 µM, first compound 0.00949 µM
[4] = second compound 0.1 µM, first compound 0.03 µM
[5] = second compound 0.1 µM, first compound 0.0949 µM
[6] = second compound 0.1 µM, first compound 0.3 µM
[7] = second compound 0.316 µM, first compound 0.000949 µM
[8] = second compound 0.316 µM, first compound 0.003 µM
[9] = second compound 0.316 µM, first compound 0.00949 µM
[10] = second compound 0.316 µM, first compound 0.03 µM
[11] = second compound 0.316 µM, first compound 0.0949 µM
[12] = second compound 0.316 µM, first compound 0.3 µM
[13] = second compound 1 µM, first compound 0.000949 µM
[14] = second compound 1 µM, first compound 0.003 µM
[15] = second compound 1 µM, first compound 0.00949 µM
[16] = second compound 1 µM, first compound 0.03 µM
[17] = second compound 1 µM, first compound 0.0949 µM
[18] = second compound 1 µM, first compound 0.3 µM
[19] = second compound 3.16 µM, first compound 0.000949 µM
[20] = second compound 3.16 µM, first compound 0.003 µM
[21] = second compound 3.16 µM, first compound 0.00949 µM
[22] = second compound 3.16 µM, first compound 0.03 µM
[23] = second compound 3.16 µM, first compound 0.0949 µM
[24] = second compound 3.16 µM, first compound 0.3 µM
[25] = second compound 10 µM, first compound 0.000949 µM
[26] = second compound 10 µM, first compound 0.003 µM
[27] = second compound 10 µM, first compound 0.00949 µM
[28] = second compound 10 µM, first compound 0.03 µM
[29] = second compound 10 µM, first compound 0.0949 µM
[30] = second compound 10 µM, first compound 0.3 µM
[31] = second compound 0.1 µM, first compound 0.0316 µM
[32] = second compound 0.1 µM, first compound 0.1 µM
[33] = second compound 0.1 µM, first compound 0.316 µM
[34] = second compound 0.1 µM, first compound 1 µM
[35] = second compound 0.1 µM, first compound 3.16 µM
[36] = second compound 0.1 µM, first compound 10 µM
[37] = second compound 0.316 µM, first compound 0.0316 µM
[38] = second compound 0.316 µM, first compound 0.1 µM
[39] = second compound 0.316 µM, first compound 0.316 µM
[40] = second compound 0.316 µM, first compound 1 µM
[41] = second compound 0.316 µM, first compound 3.16 µM
[42] = second compound 0.316 µM, first compound 10 µM
[43] = second compound 1 µM, first compound 0.0316 µM
[44] = second compound 1 µM, first compound 0.1 µM
[45] = second compound 1 µM, first compound 0.316 µM
[46] = second compound 1 µM, first compound 1 µM
[47] = second compound 1 µM, first compound 3.16 µM
[48] = second compound 1 µM, first compound 10 µM
[49] = second compound 3.16 µM, first compound 0.0316 µM
[50] = second compound 3.16 µM, first compound 0.1 µM
[51] = second compound 3.16 µM, first compound 0.316 µM
[52] = second compound 3.16 µM, first compound 1 µM
[53] = second compound 3.16 µM, first compound 3.16 µM
[54] = second compound 3.16 µM, first compound 10 µM
[55] = second compound 10 µM, first compound 0.0316 µM
[56] = second compound 10 µM, first compound 0.1 µM
[57] = second compound 10 µM, first compound 0.316 µM
[58] = second compound 10 µM, first compound 1 µM
[59] = second compound 10 µM, first compound 3.16 µM
[60] = second compound 10 µM, first compound 10 µM
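Note: spheroids exposed to agents for seven days before viability read.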

## CC(C)CC(NC(=O)C(Cc1ccccc1)NC(=O)c1cnccn1)B(O)O (stereo not given) + Cc1cncc(-c2nc(NCCc3c[nH]c4ccccc34)c3ncn(C(C)C)c3n2)c1
Second compound 0.1 µM
  IC50: 4.75 nM
Second compound 0.316 µM
  IC50: 4.16 nM
Second compound 1 µM
  IC50: 4.21 nM
Second compound 3.16 µM
  IC50: 4.41 nM
Second compound 10 µM
  IC50: < 0.949 nM
[1]
  viability, T/C: 140%
[2]
  viability, T/C: 82.9%
[3]
  viability, T/C: 0.38%
[4]
  viability, T/C: 0.6%
[5]
  viability, T/C: 0.37%
[6]
  viability, T/C: 0.39%
[7]
  viability, T/C: 123%
[8]
  viability, T/C: 69.4%
[9]
  viability, T/C: 0.83%
[10]
  viability, T/C: 2.26%
[11]
  viability, T/C: 1.05%
[12]
  viability, T/C: 0.73%
[13]
  viability, T/C: 107%
[14]
  viability, T/C: 70.6%
[15]
  viability, T/C: 0.67%
[16]
  viability, T/C: 0.27%
[17]
  viability, T/C: 0.57%
[18]
  viability, T/C: 0.35%
[19]
  viability, T/C: 109%
[20]
  viability, T/C: 74.3%
[21]
  viability, T/C: 1.45%
[22]
  viability, T/C: 0.48%
[23]
  viability, T/C: 0.28%
[24]
  viability, T/C: 0.4%
[25]
  viability, T/C: 5.75%
[26]
  viability, T/C: 2.91%
[27]
  viability, T/C: 1.36%
[28]
  viability, T/C: 0.48%
[29]
  viability, T/C: 0.49%
[30]
  viability, T/C: 0.42%

## CCc1c2c(nc3ccc(O)cc13)-c1cc3c(c(=O)n1C2)COC(=O)[C@]3(O)CC + Cc1cncc(-c2nc(NCCc3c[nH]c4ccccc34)c3ncn(C(C)C)c3n2)c1
Second compound 0.1 µM
  IC50: > 300 nM
Second compound 0.316 µM
  IC50: > 300 nM
Second compound 1 µM
  IC50: > 300 nM
Second compound 3.16 µM
  IC50: 204 nM
Second compound 10 µM
  IC50: < 0.949 nM
[1]
  viability, T/C: 89.1%
[2]
  viability, T/C: 71.7%
[3]
  viability, T/C: 91.8%
[4]
  viability, T/C: 65.7%
[5]
  viability, T/C: 83.1%
[6]
  viability, T/C: 80.9%
[7]
  viability, T/C: 82.3%
[8]
  viability, T/C: 81.9%
[9]
  viability, T/C: 102%
[10]
  viability, T/C: 97.3%
[11]
  viability, T/C: 63.5%
[12]
  viability, T/C: 61.4%
[13]
  viability, T/C: 88.5%
[14]
  viability, T/C: 71.3%
[15]
  viability, T/C: 93.6%
[16]
  viability, T/C: 76%
[17]
  viability, T/C: 73.9%
[18]
  viability, T/C: 70.3%
[19]
  viability, T/C: 71.7%
[20]
  viability, T/C: 95.7%
[21]
  viability, T/C: 91.7%
[22]
  viability, T/C: 79.3%
[23]
  viability, T/C: 55.4%
[24]
  viability, T/C: 47.2%
[25]
  viability, T/C: 2.77%
[26]
  viability, T/C: 3.5%
[27]
  viability, T/C: 8.95%
[28]
  viability, T/C: 6.69%
[29]
  viability, T/C: 10.2%
[30]
  viability, T/C: 10.6%

## Nc1ccccc1NC(=O)c1ccc(CNC(=O)OCc2cccnc2)cc1 + Cc1cncc(-c2nc(NCCc3c[nH]c4ccccc34)c3ncn(C(C)C)c3n2)c1
Second compound 0.1 µM
  IC50: 1740 nM
Second compound 0.316 µM
  IC50: 4610 nM
Second compound 1 µM
  IC50: 3440 nM
Second compound 3.16 µM
  IC50: 4100 nM
Second compound 10 µM
  IC50: < 31.6 nM
[31]
  viability, T/C: 87.7%
[32]
  viability, T/C: 91%
[33]
  viability, T/C: 97.5%
[34]
  viability, T/C: 48.9%
[35]
  viability, T/C: 43.2%
[36]
  viability, T/C: 6.54%
[37]
  viability, T/C: 67.6%
[38]
  viability, T/C: 104%
[39]
  viability, T/C: 79.5%
[40]
  viability, T/C: 83.4%
[41]
  viability, T/C: 72.2%
[42]
  viability, T/C: 4.51%
[43]
  viability, T/C: 105%
[44]
  viability, T/C: 89.6%
[45]
  viability, T/C: 79.8%
[46]
  viability, T/C: 78.5%
[47]
  viability, T/C: 57.8%
[48]
  viability, T/C: 3.52%
[49]
  viability, T/C: 64.2%
[50]
  viability, T/C: 61%
[51]
  viability, T/C: 62.3%
[52]
  viability, T/C: 65.3%
[53]
  viability, T/C: 68.1%
[54]
  viability, T/C: 1.13%
[55]
  viability, T/C: 2.83%
[56]
  viability, T/C: 3.36%
[57]
  viability, T/C: 4.55%
[58]
  viability, T/C: 1.45%
[59]
  viability, T/C: 6%
[60]
  viability, T/C: 0.4%

## O=C(c1cc(Cc2n[nH]c(=O)c3ccccc23)ccc1F)N1CCN(C(=O)C2CC2)CC1 + Cc1cncc(-c2nc(NCCc3c[nH]c4ccccc34)c3ncn(C(C)C)c3n2)c1
Second compound 0.1 µM
  IC50: > 10000 nM
Second compound 0.316 µM
  IC50: > 10000 nM
Second compound 1 µM
  IC50: > 10000 nM
Second compound 3.16 µM
  IC50: > 10000 nM
Second compound 10 µM
  IC50: < 31.6 nM
[31]
  viability, T/C: 106%
[32]
  viability, T/C: 96.6%
[33]
  viability, T/C: 78.3%
[34]
  viability, T/C: 71.6%
[35]
  viability, T/C: 72.5%
[36]
  viability, T/C: 79.5%
[37]
  viability, T/C: 97.2%
[38]
  viability, T/C: 115%
[39]
  viability, T/C: 105%
[40]
  viability, T/C: 97.2%
[41]
  viability, T/C: 92.3%
[42]
  viability, T/C: 74.4%
[43]
  viability, T/C: 78.4%
[44]
  viability, T/C: 106%
[45]
  viability, T/C: 91%
[46]
  viability, T/C: 61.5%
[47]
  viability, T/C: 72%
[48]
  viability, T/C: 59.6%
[49]
  viability, T/C: 78.4%
[50]
  viability, T/C: 66.2%
[51]
  viability, T/C: 84.3%
[52]
  viability, T/C: 68.2%
[53]
  viability, T/C: 77.7%
[54]
  viability, T/C: 67.6%
[55]
  viability, T/C: 5.77%
[56]
  viability, T/C: 4.45%
[57]
  viability, T/C: 2.26%
[58]
  viability, T/C: 4.78%
[59]
  viability, T/C: 4.97%
[60]
  viability, T/C: 8.77%
